Reference: US10189824B2, “Pyrimidine-diamine dual HSP90/TRAP1 inhibitors” (CalAsia Pharmaceuticals, Inc., priority 2014, dated 2019)

How the values were obtained:
human Hsp90 = test: Fluorescence polarization (FP) displacement assay, GA-FITC, Hsp90; assay type: binding; settings: FP displacement of GA-FITC, 50 nM Hsp90; for Ki: read-out: Biochemical efficacy HSP90 Ki
Description: (§1) Prior to transforming into BL21 (DE3) all the cloned vectors were sequence confirmed. Expressed proteins were purified using NTA resin (Life Technologies) followed by size exclusion chromatography using FPLC. The molecular mass of the purified proteins was confirmed by MALDI-TOF and assessed for purity by SDS-PAGE.
(§2) The assay conditions were 20 mM HEPES, pH-7.5, 50 mM KCl, 5 mM MgCl2, 20 mM sodium molybdate, 2 mM DTT, 0.01% NP40, 100 ug/ml BSA, 50 nM Hsp90 or 200 nM TRAP1, 1% DMSO, and 8 nM (for Hsp90) or 20 nM (for TRAP1) GA-FITC in the presence of increasing concentrations of test compound.

TRAP1 = target: T1, TRAP1 (Homo sapiens, UniProt Q12931); test: Fluorescence polarization (FP) displacement assay, GA-FITC, TRAP1; assay type: binding; settings: FP displacement of GA-FITC, 200 nM TRAP1; for Ki: NA: Not active, read-out: Biochemical efficacy TRAP1 Ki
T1 construct: Recombinant full-length human Hsp90 and 459 TRAP1 were cloned; 6His (TEV-cleavable) (N); made in house; host or cells: E. coli BL21 (DE3)
T1 sequence (Q12931 60-704): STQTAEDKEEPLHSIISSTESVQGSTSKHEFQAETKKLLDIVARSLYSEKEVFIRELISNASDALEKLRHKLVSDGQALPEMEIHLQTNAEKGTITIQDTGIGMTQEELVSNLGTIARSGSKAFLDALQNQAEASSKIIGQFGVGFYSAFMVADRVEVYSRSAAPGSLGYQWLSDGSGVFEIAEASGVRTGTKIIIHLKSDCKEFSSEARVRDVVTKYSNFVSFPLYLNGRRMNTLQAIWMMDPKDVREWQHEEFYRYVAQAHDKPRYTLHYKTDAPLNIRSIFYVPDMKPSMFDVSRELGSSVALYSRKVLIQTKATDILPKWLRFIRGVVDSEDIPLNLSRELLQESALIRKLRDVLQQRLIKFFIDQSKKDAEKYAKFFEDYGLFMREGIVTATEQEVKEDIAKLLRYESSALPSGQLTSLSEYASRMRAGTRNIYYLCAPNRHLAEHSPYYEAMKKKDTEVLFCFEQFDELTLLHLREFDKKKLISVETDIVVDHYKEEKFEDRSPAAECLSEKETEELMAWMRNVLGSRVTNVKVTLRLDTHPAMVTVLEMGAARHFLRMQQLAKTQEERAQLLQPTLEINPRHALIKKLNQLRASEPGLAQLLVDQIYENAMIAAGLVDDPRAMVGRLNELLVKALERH
Description: as §1, §2

[1] = test system: Hsp70 levels in U251MG cells; test: Biomarker quantitation by ELISA, Hsp70; assay type: cell-based; settings: 15.6 uM, 48 h
Description: U251 cells were plated in 6 well format culture dishes overnight at 37° C. with 5% CO2 and then treated with increasing concentrations of test compounds for 48 h at 37° C. with 5% CO2. Quantification of total Akt1, EGFR, and Hsp70 in cell lysates was accomplished using ELISA kits (R&D Systems) according to the manufacturer's recommendations and utilizing a Synergy HT micro-titer plate reader (Biotek). Cell lysates were prepared as recommended in the kit procedure. Protein concentrations of lysates clarified using centrifugation were determined using a Bradford assay (Thermo Scientific), and the values were used to normalize the biomarker values.

U251MG cells = test: TMRE assay, cell-based (mitochondrial membrane potential); settings: for Decrease of specific TMRE fluorescence vs untreated: U251MG cells, 48 h
Description: […] TMRE (200 nM) was then added to wells for 30 min and monitored for changes in fluorescence activity either by fluorescence microscopy using an inverted Zeiss LSM 710 confocal microscope or by spectrophotometry using a fluorescence plate reader (544ex/590em) after washing the cells. Specific TMRE fluorescence was calculated by comparison to matched wells pretreated with 20 uM FCCP for 10 min prior to addition of TMRE. For mitochondria assays, untreated U251MG cells grown to confluence in T75 culture flasks. Mitochondria from these cells were isolated using a mitochondria isolation kit (Thermo Scientific) and loaded with 0.1 mM TMRE in kit buffer at 37° C. for 20 min. After washing, the TMRE-loaded mitochondria (2 ug per well) were incubated in a 96 well black plate with test compounds and monitored kinetically at 30° C. for changes in fluorescence using a fluorescence plate reader (ex 544/em 590). The fluorescence intensity after treatment with 20 um FCCP in control wells corresponded to a fully depolarized state.
(§3) Mitochondrial integrity was evaluated using Tetramethylrhodamine ethyl ester (TMRE) assay. A TMRE assay kit (Abcam) was used to evaluate Hsp90/TRAP1 inhibitor-induced changes in mitochondrial membrane potential. […] TMRE (200 nM) was then added to wells for 30 min and monitored for changes in fluorescence activity using a fluorescence plate reader (ex544/em 590) after washing the cells. Specific TMRE fluorescence was calculated by comparison to matched wells pretreated with the depolarizing proton ionophore carbonyl cyanide 4-(trifluoromethoxy)phenylhydrazone (FCCP) at 20 uM 10 min prior to addition of TMRE. For mitochondria assays, mitochondria was isolated using a kit from Thermoscientific and loaded with 0.1 mM TMRE. TMRE-loaded mitochondria (2 μg per well) were incubated with test compounds and monitored kinetically at 30° C. for changes in fluorescence using a flurorescence plate reader (ex 544/em 590) (FIGS. 6A, 9A and 12).

[2] = test system: U251MG cell mitochondrial respiration; test: Mitochondrial respiratory function assay (OCR, Seahorse); assay type: cell-based; settings: U251MG cells, stressed conditions (oligomycin, FCCP, rotenone); within minutes
Description: The effect of test compounds on the mitochondrial oxygen consumption rate (OCR) was determined in real time using a Seahorse Xr24 extracellular flux analyzer (Seahorse Bioscience). The cell-based assay was performed essentially as recommended by the manufacturer. Briefly, cells were seeded in a 24 well XF plate using an appropriate cell density. “Flux Pak” cartridge (containing the O2 and H^+ sensitive fluorophores) were hydrated in the XF calibrant solution overnight just prior to running the assay. On the following day, the cells were replenished with XF assay media (unbuffered DMEM containing 10 mM glucose and 2 mM pyruvate) and placed in a CO2 free 37° C. incubator for an additional one hour. Basal OCR was measured before the wells were injected with test compounds. Subsequently, mitochondrial bioenergetics stress was determined by treating the cells sequentially with 0.125 mg/ml Oligomycin (ATP synthase inhibitor), […] FCCP (uncoupler) and […] rotenone (Complex I inhibitor) while continuously measuring the OCR.

HEI193 cells = test: TMRE assay, HEI193 cell mitochondrial integrity; assay type: cell-based, human; settings: observed as early as 2 hours after treatment
Description: as §3

MDA-MB-231 cells = test: TMRE assay, MDA-MB-231 cell mitochondrial integrity; assay type: cell-based; settings: 2 hours or 4 hours
Description: as §3

Row | IC50 (human Hsp90; read-out: Biochemical efficacy HSP90 IC50) [nM] | IC50 (TRAP1; read-out: Biochemical efficacy TRAP1 IC50) [nM] | SMILES | Ki (human Hsp90) [nM] | Ki (TRAP1) [nM] | Increase of Hsp70 levels [1] [fold] | Decrease of specific TMRE fluorescence vs untreated (U251MG cells; 5 uM) [%] | Decrease of specific TMRE fluorescence vs untreated (U251MG cells; 50 uM) [%] | Effect on mitochondrial oxygen consumption rate [2] | Effect on TMRE fluorescence of U251MG cells (U251MG cells; 2 hour or 4 hr) | Effect on TMRE fluorescence in HEI193 cells (HEI193 cells) | Effect on TMRE fluorescence of MDA-MB-231 cells (MDA-MB-231 cells)
1 | – | – | COc1c(C)cnc(CN(CCc2ccccn2)c2cc(Cl)nc(N)n2)c1C [Compound 1, 6-chloro-4-N-[(4-methoxy-3,5-dimethylpyridin-2yl)methyl]-4-N-[2-(pyridine-2-yl)ethyl]pyrimidine-2,4-amine] | 39.4 | 50.4 | 6 | 42 | 73 | dose-dependent decrease | – | – | –
2 | 44 | 312 | COc1c(C)cnc(CN(CC2(c3ccc(F)cc3)CCOCC2)c2cc(Cl)nc(N)n2)c1C [Compound A, 6-chloro-4-N-{[4-(4-fluorophenyl)oxan-4-yl]methyl}-4-N-[(4-methoxy-3,5-dimethylpyridin-2-yl)methyl]pyrimidine-2,4-diamine] | 11 | 39 | – | – | – | – | dose-dependent decrease | dose-dependent decrease | dose-dependent decrease
